Publication PMC8040626, “A unique Malpighian tubule architecture in Tribolium castaneum informs the evolutionary origins of systemic osmoregulation in beetles” (Proceedings of the National Academy of Sciences of the …, 2021)
Entries after “also recorded” stand apart in the source; their conditions may differ.

Tests used:
[1] = tested on: Urn8R on the SC basal membrane; assay: Ex vivo ligand-receptor binding assay, T. castaneum tubules; parameters: species or system Tribolium castaneum; details: T. castaneum MTs, labelled peptide 10^-7 M, confocal microscopy
Text: To dissect the molecular mechanism underpinning Urn8-mediated control of tubule function, we immunolocalized Urn8R to the tubule epithelium of T. castaneum. […] The SC identity of this Urn8R-expressing cell type was verified by colocalization of the Tiptop transcription factor, which is known to control SC differentiation in other insects ([21]) (SI Appendix, Fig. S2A). The fact that the Urn8 pathway is confined exclusively to SCs in T. castaneum is in contrast to that of all other insects studied to date in which this hormonal circuit is diagnostic of PC activity, the majority cell type ([22]–[24]). […] Specificity of the antibody was verified by the lack of staining in MTs from Urn8R-silenced animals, and by the fact that the molecular weight of the protein corresponds to the predicted size of the receptor (Fig. 2 A and B). […]
(§1) Ligand-Receptor Binding Assay. […] Next, the tissues were set-up in a matched-pair protocol, in which one batch was incubated in the appropriate insect saline added the labelled neuropeptide analogue ([…]) and DAPI (1 µg ml-1), while the other was incubated in just DAPI; the latter batch was used to adjust baseline filter and exposure settings to minimize auto-fluorescence during image acquisition.
(§2) Images were subsequently recorded on a Zeiss LSM 800 confocal microscope using baseline filter and exposure settings. […]

[2] = tested on: basolateral membranes of SCs in MTs; assay: Ex vivo ligand-receptor binding assay, T. molitor tubules; parameters: species or system Tenebrio molitor; details: labelled peptide 10^-7 M, confocal microscopy
Text: Fig. 2. The Urn8 receptor localizes to a secondary cell type in MTs and is activated by its endogenous ligands DH37 and DH47. (A) Urn8R is expressed in a subpopulation of cells throughout the “free” part of the T. castaneum MT (small arrows); there are 53 ± 2 (n = 8) cells per tubule. […] (Scale bars, Left, 150 μm; Middle and Right, 30 μm.) (B) Western blot analysis of protein extracts from T. castaneum tubules showing that the anti-Urn8R antiserum recognizes a protein of a size of approximately 50 to 55 kDa, consistent with the predicted size of the receptor (51.6 kDa for the dominant -RA isoform, arrow). (C) Application of fluorophore-coupled receptor agonists DH37-F and DH47-F (10^−7 M) to T. castaneum and T. molitor MTs. […] Values are expressed as mean ± SEM. […]
as §1, §2

[3] = tested on: tubule basolateral membranes; assay: Ex vivo ligand-receptor binding assay, all beetle species sampled; parameters: species or system all species sampled (beetles)
Text: (§3) Collectively, our work points to a model in which beetle MT function operates via a two-cell–type model that is different from that of all other higher insects ([11]). To determine whether this epithelial organization is universal among beetles or, alternatively, a derived trait specific to the drought-resistant tenebrionid species, we adapted the ligand-receptor binding assay (as used in Fig. 2C) to systematically map MT tissue architecture across the beetle phylogeny. In our sampling strategy, we prioritized species representative of the larger beetle families while trying to select species inhabiting different types of ecological niches (dry, moist, or aquatic). […]
as §1, §2
(§4) Electrophysiological assays. […] In brief, the ion-selective microelectrode voltage was measured at a position close to the tissue (3–5 μm) and subsequently at a more distant position (app. 50 μm) from the tubule. […]

[4] = tested on: small-nucleated SC-type of MTs; assay: Ex vivo ligand-receptor binding assay, polyphagan beetles; details: all polyphagan beetles
Text: as §3, §1, §2, §4

larger PC-type of MTs = assay: Ex vivo ligand-receptor binding assay, adephagan species
Text: as §3, §1, §2, §4

Row | Substance | Binding of fluorophore-coupled ligand [1] | Binding of fluorophore-coupled ligand [2] | Binding of fluorophore-coupled ligand [3] | Binding of fluorophore-coupled ligand, cell type [4] | Binding of fluorophore-coupled ligand, cell type (larger PC-type of MTs)
1 | TMR-C5-maleimide-AGALGESGASLSIVNSLDVLRNRLLLEIARKKAKEGANRNRQILLSLamide [DH47-F, fluorophore-coupled DH47 analog, TMR-C5-maleimide labelled] | bind to basolateral membranes of SCs; also recorded: Specific and displaceable binding to the SCs | bind to basolateral membranes of SCs; also recorded: Specific and displaceable binding to the SCs | specific and displaceable | localized entirely to a small-nucleated SC-type | confined to a larger PC-type
2 | TMR-C5-maleimide-SPTISITAPIDVLRKTWAKENMRKQMQINREYLKNLQamide [DH37-F, fluorophore-coupled DH37 analog, TMR-C5-maleimide labelled] | bind to basolateral membranes of SCs; also recorded: Specific and displaceable binding to the SCs | bind to basolateral membranes of SCs; also recorded: Specific and displaceable binding to the SCs | specific and displaceable | localized entirely to a small-nucleated SC-type | confined to a larger PC-type
